One experiment deals with hNAMPT protein (Homo sapiens (Human), UniProt P43490). Nature of the experiment: NAMPT enzyme assay (TR-FRET/HTRF, BodiPY ligand, anti 6His-Tb). The experiment is classed as binding. Particulars: for inhibition at 1 µM: NAMPT inhibition at compound concentration 1 μM; for pIC50: NAMPT inhibition, IC50 range class, read-out: IC50. Put shortly: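 Compound or DMSO was incubated for 1 h at room temperature, protected from light, with BodiPY ligand and hNAMPT labelled by terbium anti-6His antibody. The 520 nm to 486 nm emission ratio after 320 nm excitation gave inhibition versus vehicle, from which concentration-response curves yielded IC50.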
Chain of hNAMPT protein (P43490 whole entry): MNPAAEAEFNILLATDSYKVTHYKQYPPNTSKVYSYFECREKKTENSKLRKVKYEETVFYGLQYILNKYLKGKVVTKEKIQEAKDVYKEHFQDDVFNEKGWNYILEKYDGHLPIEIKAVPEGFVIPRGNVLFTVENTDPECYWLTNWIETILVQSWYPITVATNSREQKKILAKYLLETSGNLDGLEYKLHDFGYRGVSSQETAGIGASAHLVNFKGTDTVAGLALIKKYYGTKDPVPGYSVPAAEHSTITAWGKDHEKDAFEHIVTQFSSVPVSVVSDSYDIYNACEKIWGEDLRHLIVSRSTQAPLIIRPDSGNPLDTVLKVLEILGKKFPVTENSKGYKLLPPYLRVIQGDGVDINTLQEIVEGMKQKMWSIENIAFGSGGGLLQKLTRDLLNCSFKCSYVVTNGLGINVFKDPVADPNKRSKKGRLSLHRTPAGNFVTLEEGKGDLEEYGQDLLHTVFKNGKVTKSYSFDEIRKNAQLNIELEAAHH
(In general: Time-resolved FRET reads energy transfer from a long-lived donor to a nearby acceptor.)

For the next experiment, the system named is PC3 cells. Nature of the experiment: PC3 growth inhibition (Cell-titer glo, 72 hours). In kind it is cell-based. Particulars: Homo sapiens, PC-3; compound concentration 1.667 μM; PC3 cells, 72 hours, Cell-titer glo; read-out: Percent Inhibition (PC3 growth inhibition). The method in brief: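 Compounds in AIM serum-free medium were applied for 72 h at 37 °C, 5% CO2 to PC3 cells plated overnight from RPMI1640 culture. Luminescence after 10 min CellTiter-Glo, normalised to DMSO, gave % viability at 1 μM or 1.667 μM, or GI50/LD50.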

Each structure is given as a SMILES string. pIC50: −log10 of the molar value.

A word on the inhibition: it is the percentage by which the read-out fell short of the control. As a reminder, the pIC50 is −log10 of the IC50, conventionally taken in molar units.

For `O=C(NCCCc1ncc[nH]1)c1ccc2nc(OCC3CCCO3)c(-c3ccc(F)cc3)nc2c1` (stereo not drawn) [Compound I-438, 3-(4-fluorophenyl)-N-[3-(1H-imidazol-2-yl)propyl]-2-(tetrahydrofuran-2-ylmethoxy)quinoxaline-6-carboxamide], the inhibition at 1 µM on hNAMPT protein (read-out: Percent Inhibition) was 99%. Further, the negative-log IC50 (pIC50) at hNAMPT protein was > 7.00. Further, the inhibition at 1.667 µM in the experiment on PC3 cells was determined as 2%.
For the compound `O=C(NCCCc1ncc[nH]1)c1ccc2nc(OCc3ccccc3)c(-c3ccc(F)cc3)nc2c1` [Compound I-439, 2-(benzyloxy)-3-(4-fluorophenyl)-N-[3-(1H-imidazol-2-yl)propyl]quinoxaline-6-carboxamide], the inhibition at 1 µM on hNAMPT protein (read-out: Percent Inhibition) was determined as 93%. The negative-log IC50 (pIC50) on hNAMPT protein is > 7.00. Moreover, in the experiment on PC3 cells, the inhibition at 1.667 µM turned out to be 3%.
In the case of `CCOc1nc2ccc(C(=O)NCCCc3ncc[nH]3)cc2nc1-c1ccc(F)cc1` [Compound I-440, 2-ethoxy-3-(4-fluorophenyl)-N-[3-(1H-imidazol-2-yl)propyl]quinoxaline-6-carboxamide], the inhibition at 1 µM at hNAMPT protein (read-out: Percent Inhibition) is 94%. In addition, on hNAMPT protein, the negative logarithm of the IC50 (pIC50) was > 7.00. Besides, the inhibition at 1.667 µM with PC3 cells was found to be 3%.
The matching figures for `O=C(NCCCc1cnccn1)c1ccc2nc(N3CCCCC3)c(-c3ccc(F)cc3)nc2c1` [Compound I-441, 3-(4-fluorophenyl)-2-(piperidin-1-yl)-N-[3-(pyrazin-2-yl)propyl]quinoxaline-6-carboxamide]: 50%, 6.00 to 6.30 and > 99%.
The matching figures for `O=C(NCCCc1ncc[nH]1)c1ccc2nc(OCCc3cn[nH]c3)c(-c3ccc(F)cc3)nc2c1` [Compound I-442, 3-(4-fluorophenyl)-N-[3-(1H-imidazol-2-yl)propyl]-2-[2-(1H-pyrazol-4-yl)ethoxy]quinoxaline-6-carboxamide]: > 99%, > 7.00 and 3%.
As for `O=C(NCCc1ncc[nH]1)c1ccc2nc(-c3ccc(F)cc3)c(-c3ccc(Cl)s3)nc2c1` [Compound I-443, N-(2-(1H-imidazol-2-yl)ethyl)-3-(5-chlorothiophen-2-yl)-2-(4-fluorophenyl)quinoxaline-6-carboxamide], the inhibition at 0.333 µM at hNAMPT protein (NAMPT inhibition at compound concentration 0.333 μM (data at 1 uM not available due to solubility limitations), read-out: Percent Inhibition) worked out at 57%. Moreover, the pIC50 on hNAMPT protein was 6.30 to 7.00. The inhibition at 1.667 µM with PC3 cells is 11%.
Turning to `CC(C)c1nc2ccc(C(=O)NCCCc3ncc[nH]3)cc2nc1-c1ccc(F)cc1` [Compound I-444, 3-(4-fluorophenyl)-N-[3-(1H-imidazol-2-yl)propyl]-2-isopropylquinoxaline-6-carboxamide], at hNAMPT protein (read-out: Percent Inhibition), the inhibition at 1 µM came out at 77%. Besides, the negative logarithm of the IC50 (pIC50) on hNAMPT protein was 6.30 to 7.00. For the same compound, the inhibition at 1.667 µM in the experiment on PC3 cells turned out to be 1%.
In the case of `Cc1ccc(C(F)(F)F)cc1-c1nc2cc(C(=O)NCCCc3ncc[nH]3)ccc2nc1-c1ccc(F)cc1` [Compound I-445, 2-(4-fluorophenyl)-N-[3-(1H-imidazol-2-yl)propyl]-3-[2-methyl-5-(trifluoromethyl)phenyl]quinoxaline-6-carboxamide], at hNAMPT protein (read-out: Percent Inhibition), the inhibition at 1 µM was found to be 91%. Moreover, the negative-log IC50 (pIC50) at hNAMPT protein is > 7.00. The inhibition at 1.667 µM in the experiment with PC3 cells worked out at 2%.
The like results for `Cc1noc(C)c1COc1nc2ccc(C(=O)NCCCc3ncc[nH]3)cc2nc1-c1ccc(F)cc1` [Compound I-446, 2-[(3,5-dimethylisoxazol-4-yl)methoxy]-3-(4-fluorophenyl)-N-[3-(1H-imidazol-2-yl)propyl]quinoxaline-6-carboxamide] were, in that order, > 99%, > 7.00 and 2%.
The like results for `CCOc1cccc(-c2nc3cc(C(=O)NCCCc4ncc[nH]4)ccc3nc2-c2ccc(F)cc2)c1` [Compound I-447, 3-(3-ethoxyphenyl)-2-(4-fluorophenyl)-N-[3-(1H-imidazol-2-yl)propyl]quinoxaline-6-carboxamide] were, in that order, 99%, > 7.00 and 2%.

The record behind these values is patent publication US10144742B2 (Millennium Pharmaceuticals, Inc., priority 2014, dated 2018).
